Measured values taken from paper PMC5218480 (PLoS ONE, 2017).

System: MV-4-11 cells
Assay: Gene expression microarray analysis (Affymetrix PrimeView) and GSEA
Format: cell-based, human
Design: RFU PODN (11730768_x_at) / Fold change /veh PODN (11730768_x_at) / RFU LINC00158 (11744669_a_at) / Fold change /veh LINC00158 (11744669_a_at) / RFU DUSP10 (11751237_a_at) / Fold change /veh DUSP10 (11751237_a_at) / RFU ID3 (11757404_x_at) / Fold change /veh ID3 (11757404_x_at) / RFU PLEKHG5 (11737974_s_at) / Fold change /veh PLEKHG5 (11737974_s_at) / RFU LRRC4B (11730491_at) / Fold change /veh LRRC4B (11730491_at) / RFU GIMAP4 (11747438_a_at) / Fold change /veh GIMAP4 (11747438_a_at) / RFU KRT8 (11758183_x_at) / Fold change /veh KRT8 (11758183_x_at) / RFU CNN1 (11734310_a_at) / Fold change /veh CNN1 (11734310_a_at) / RFU VPS37D (11726825_at) / Fold change /veh VPS37D (11726825_at) / RFU C10orf10 (11716522_x_at) / Fold change /veh C10orf10 (11716522_x_at) / RFU KIR2DL2 /// KIR2DL4 /// KIR2DL5A /// KIR2DL5B /// KIR2DS1 /// KIR2DS2 /// KIR2DS3 /// KIR2DS4 /// KIR3DL3 /// KIR3DL3 /// KIR3DS1 (11738374_at) / Fold change /veh KIR2DL2 /// KIR2DL4 /// KIR2DL5A /// KIR2DL5B /// KIR2DS1 /// KIR2DS2 /// KIR2DS3 /// KIR2DS4 /// KIR3DL3 /// KIR3DL3 /// KIR3DS1 (11738374_at) / RFU C1QL1 (11718748_at) / Fold change /veh C1QL1 (11718748_at) / RFU TMPRSS4 (11747572_a_at) / Fold change /veh TMPRSS4 (11747572_a_at) / RFU HAMP (11756126_x_at) / Fold change /veh HAMP (11756126_x_at) / RFU RNFT2 (11725882_a_at) / Fold change /veh RNFT2 (11725882_a_at) / RFU NR4A2 (11747474_a_at) / Fold change /veh NR4A2 (11747474_a_at) / RFU ABCC12 (11746883_a_at) / Fold change /veh ABCC12 (11746883_a_at) / RFU TMEM136 (11760407_x_at) / Fold change /veh TMEM136 (11760407_x_at) / RFU CLDN22 /// WWC2 (11732394_at) / Fold change /veh CLDN22 /// WWC2 (11732394_at) / RFU HLA-DPB1 (11760878_x_at) / Fold change /veh HLA-DPB1 (11760878_x_at) / RFU SPINT1 (11716480_a_at) / Fold change /veh SPINT1 (11716480_a_at) / RFU GAP43 (11754022_s_at) / Fold change /veh GAP43 (11754022_s_at) / RFU A4GNT (11735810_at) / Fold change /veh A4GNT (11735810_at) / RFU PRB3 (11715151_x_at) / Fold change /veh PRB3 (11715151_x_at) / RFU TUBB4B (11761932_at) / Fold change /veh TUBB4B (11761932_at) / RFU CAPN14 (11732068_a_at) / Fold change /veh CAPN14 (11732068_a_at) / RFU TMCC2 (11721928_a_at) / Fold change /veh TMCC2 (11721928_a_at) / RFU IRGQ (11745062_a_at) / Fold change /veh IRGQ (11745062_a_at) / RFU FAM174B (11720279_a_at) / Fold change /veh FAM174B (11720279_a_at) / RFU TMPRSS4 (11748680_a_at) / Fold change /veh TMPRSS4 (11748680_a_at) / RFU FAM212B (11763350_a_at) / Fold change /veh FAM212B (11763350_a_at) / RFU PLEKHG5 (11743358_a_at) / Fold change /veh PLEKHG5 (11743358_a_at) / RFU ZSCAN30 (11745921_a_at) / Fold change /veh ZSCAN30 (11745921_a_at) / RFU CMKLR1 (11741424_a_at) / Fold change /veh CMKLR1 (11741424_a_at) / RFU LOC101060620 /// MAPK8IP1 (11723275_at) / Fold change /veh LOC101060620 /// MAPK8IP1 (11723275_at) / RFU SPTSSB (11747773_x_at) / Fold change /veh SPTSSB (11747773_x_at) / RFU PRSS12 (11739890_at) / Fold change /veh PRSS12 (11739890_at) / RFU BIN1 (11741810_x_at) / Fold change /veh BIN1 (11741810_x_at) / RFU WNT11 (11732464_a_at) / Fold change /veh WNT11 (11732464_a_at) / RFU C10orf10 (11716521_a_at) / Fold change /veh C10orf10 (11716521_a_at) / RFU C5orf56 (11738089_at) / Fold change /veh C5orf56 (11738089_at) / RFU CYB561 (11721691_x_at) / Fold change /veh CYB561 (11721691_x_at) / RFU ANKRD19P (11752326_a_at) / Fold change /veh ANKRD19P (11752326_a_at) / RFU OR2T12 /// OR2T33 /// OR2T8 (11738714_s_at) / Fold change /veh OR2T12 /// OR2T33 /// OR2T8 (11738714_s_at) / RFU VCAN (11748164_a_at) / Fold change /veh VCAN (11748164_a_at) / RFU JSRP1 (11732532_at) / Fold change /veh JSRP1 (11732532_at) / RFU KRTAP10-11 (11738290_x_at) / Fold change /veh KRTAP10-11 (11738290_x_at) / RFU MYO3A (11730013_a_at) / Fold change /veh MYO3A (11730013_a_at) / RFU EBF3 (11725865_a_at) / Fold change /veh EBF3 (11725865_a_at) / RFU CAMK2N1 (11719241_x_at) / Fold change /veh CAMK2N1 (11719241_x_at) / RFU C5orf56 (11738088_a_at) / Fold change /veh C5orf56 (11738088_a_at) / RFU OLFML3 (11715873_a_at) / Fold change /veh OLFML3 (11715873_a_at) / RFU LOC100653217 /// NTM (11731650_a_at) / Fold change /veh LOC100653217 /// NTM (11731650_a_at) / RFU MAPK11 (11762145_a_at) / Fold change /veh MAPK11 (11762145_a_at) / RFU FIZ1 (11724087_x_at) / Fold change /veh FIZ1 (11724087_x_at) / RFU OASL (11726364_x_at) / Fold change /veh OASL (11726364_x_at) / RFU SOX15 (11748057_x_at) / Fold change /veh SOX15 (11748057_x_at) / RFU CD79A (11719716_a_at) / Fold change /veh CD79A (11719716_a_at) / RFU HIST1H1D (11736915_at) / Fold change /veh HIST1H1D (11736915_at) / RFU CASKIN2 (11723855_a_at) / Fold change /veh CASKIN2 (11723855_a_at) / RFU LOC730098 (11760151_x_at) / Fold change /veh LOC730098 (11760151_x_at) / RFU OR4N2 (11742367_at) / Fold change /veh OR4N2 (11742367_at) / RFU PRRT2 (11749266_a_at) / Fold change /veh PRRT2 (11749266_a_at) / RFU SNX32 (11753110_a_at) / Fold change /veh SNX32 (11753110_a_at) / RFU CDHR5 (11726645_a_at) / Fold change /veh CDHR5 (11726645_a_at) / RFU RCAN1 (11760418_a_at) / Fold change /veh RCAN1 (11760418_a_at) / RFU FAM167A (11723789_a_at) / Fold change /veh FAM167A (11723789_a_at) / RFU FAM26E (11764081_at) / Fold change /veh FAM26E (11764081_at) / RFU ISYNA1 (11749810_s_at) / Fold change /veh ISYNA1 (11749810_s_at) / RFU ACY1 (11761880_at) / Fold change /veh ACY1 (11761880_at) / RFU 11764098_at / Fold change /veh 11764098_at / RFU SAMD14 (11745864_x_at) / Fold change /veh SAMD14 (11745864_x_at) / RFU NPB (11741838_a_at) / Fold change /veh NPB (11741838_a_at) / RFU TMPRSS6 (11731388_a_at) / Fold change /veh TMPRSS6 (11731388_a_at) / RFU KRTAP10-2 (11738614_at) / Fold change /veh KRTAP10-2 (11738614_at) / RFU ARHGAP8 /// PRR5-ARHGAP8 (11727945_x_at) / Fold change /veh ARHGAP8 /// PRR5-ARHGAP8 (11727945_x_at) / RFU KRTAP5-7 /// NADSYN1 (11734609_at) / Fold change /veh KRTAP5-7 /// NADSYN1 (11734609_at) / RFU RASL12 (11751679_a_at) / Fold change /veh RASL12 (11751679_a_at) / RFU CDKN2B (11736163_a_at) / Fold change /veh CDKN2B (11736163_a_at) / RFU PRF1 (11729649_at) / Fold change /veh PRF1 (11729649_at) / RFU, ZNF638 /// ZNF638-IT1 / Fold change vs veh, ZNF638 /// ZNF638-IT1 / RFU, PANK3 / Fold change vs veh, PANK3 / RFU, SH3YL1 / Fold change vs veh, SH3YL1 / RFU, ZEB2 / Fold change vs veh, ZEB2 / RFU, NRIP1 / Fold change vs veh, NRIP1 / RFU, PTTG1IP / Fold change vs veh, PTTG1IP / RFU, CAPN2 / Fold change vs veh, CAPN2 / RFU, MED14 / Fold change vs veh, MED14 / RFU, SNORA58 / Fold change vs veh, SNORA58 / RFU, C1orf63 / Fold change vs veh, C1orf63 / RFU, LRRFIP1 / Fold change vs veh, LRRFIP1 / RFU, NDUFAF7 / Fold change vs veh, NDUFAF7 / RFU, SLC12A2 / Fold change vs veh, SLC12A2 / RFU, IBTK / Fold change vs veh, IBTK / RFU, ESF1 / Fold change vs veh, ESF1 / Fold change vs veh, TMEM50B / RFU, TAOK1 / Fold change vs veh, TAOK1 / RFU, ACBD3 / Fold change vs veh, ACBD3 / RFU, TMA16 / Fold change vs veh, TMA16 / RFU, RWDD3 / Fold change vs veh, RWDD3 / RFU, BCAT1 / Fold change vs veh, BCAT1 / RFU, EDEM3 / Fold change vs veh, EDEM3 / RFU, TMEM33 / Fold change vs veh, TMEM33 / RFU, WDR75 / Fold change vs veh, WDR75 / RFU, AHCTF1 / Fold change vs veh, AHCTF1 / RFU, TFRC / Fold change vs veh, TFRC / RFU, ZDHHC17 / Fold change vs veh, ZDHHC17 / RFU, NOM1 / Fold change vs veh, NOM1 / RFU, ARL8B / Fold change vs veh, ARL8B / RFU, ZBTB11 / Fold change vs veh, ZBTB11 / RFU, TAMM41 / Fold change vs veh, TAMM41 / RFU, KIAA1704 /// LOC100996395 / Fold change vs veh, KIAA1704 /// LOC100996395 / RFU, ING1 / Fold change vs veh, ING1 / RFU, TRMT61B / Fold change vs veh, TRMT61B / RFU, FUBP3 / Fold change vs veh, FUBP3 / RFU, TP53 / Fold change vs veh, TP53 / RFU, TNKS2 / Fold change vs veh, TNKS2 / RFU, ZFP14 / Fold change vs veh, ZFP14 / RFU, ACTR2 / Fold change vs veh, ACTR2 / RFU, PPP3R1 / Fold change vs veh, PPP3R1 / RFU, PIK3R1 / Fold change vs veh, PIK3R1 / RFU, HNRNPA1 / Fold change vs veh, HNRNPA1 / RFU, RNF170 / Fold change vs veh, RNF170 / RFU, ZNF28 / Fold change vs veh, ZNF28 / RFU, RNGTT / Fold change vs veh, RNGTT / RFU, OGT / Fold change vs veh, OGT / RFU, BRD1 / Fold change vs veh, BRD1 / RFU, MARS / Fold change vs veh, MARS / RFU, ZNF655 / Fold change vs veh, ZNF655 / RFU, FAHD1 / Fold change vs veh, FAHD1 / RFU, BDP1 / Fold change vs veh, BDP1 / RFU, LRRCC1 / Fold change vs veh, LRRCC1 / RFU, ARID1A / Fold change vs veh, ARID1A / RFU, ZNF146 / Fold change vs veh, ZNF146 / RFU, ZNF330 / Fold change vs veh, ZNF330 / RFU, GPN3 / Fold change vs veh, GPN3 / RFU, C9orf123 / Fold change vs veh, C9orf123 / RFU, N4BP2L2 / Fold change vs veh, N4BP2L2 / RFU, ARFIP1 / Fold change vs veh, ARFIP1 / RFU, FAM179B / Fold change vs veh, FAM179B / RFU, BCL10 / Fold change vs veh, BCL10 / RFU, UHRF1BP1L / Fold change vs veh, UHRF1BP1L / RFU, BET1 / Fold change vs veh, BET1 / RFU, CNOT2 / Fold change vs veh, CNOT2 / RFU, ZNF268 / Fold change vs veh, ZNF268 / Fold change vs veh, ZNF507 / RFU, DGCR2 / Fold change vs veh, DGCR2 / RFU, WDSUB1 / Fold change vs veh, WDSUB1 / Fold change vs veh, HSP90B1 /// MIR3652 / RFU, ADSS / Fold change vs veh, ADSS / RFU, GK / Fold change vs veh, GK / RFU, ZNF148 / Fold change vs veh, ZNF148 / RFU, TAF9 / Fold change vs veh, TAF9 / RFU, SLC1A5 / Fold change vs veh, SLC1A5 / RFU, SLMO2 / Fold change vs veh, SLMO2 / RFU, ABCC4 / Fold change vs veh, ABCC4 / RFU, LOC101060439 /// RAP1B / Fold change vs veh, LOC101060439 /// RAP1B / RFU, RFX7 / Fold change vs veh, RFX7 / RFU, GTPBP10 / Fold change vs veh, GTPBP10 / RFU, CNEP1R1 / Fold change vs veh, CNEP1R1 / RFU, BIVM-ERCC5 /// ERCC5 / Fold change vs veh, BIVM-ERCC5 /// ERCC5 / RFU, ILF3 / Fold change vs veh, ILF3 / RFU 11762660_at / Fold change /veh 11762660_at / RFU VCAN (11757783_s_at) / Fold change /veh VCAN (11757783_s_at) / RFU DDX43 (11728927_at) / Fold change /veh DDX43 (11728927_at) / RFU KRT8 (11758188_x_at) / Fold change /veh KRT8 (11758188_x_at) / RFU NKD1 (11759106_at) / Fold change /veh NKD1 (11759106_at) / RFU SRD5A1 (11742802_a_at) / Fold change /veh SRD5A1 (11742802_a_at) / RFU TPSAB1 /// TPSB2 (11721975_s_at) / Fold change /veh TPSAB1 /// TPSB2 (11721975_s_at) / RFU GSTM3 (11746129_a_at) / Fold change /veh GSTM3 (11746129_a_at) / RFU IL23R (11737362_x_at) / Fold change /veh IL23R (11737362_x_at) / RFU TMEM51 (11727254_a_at) / Fold change /veh TMEM51 (11727254_a_at) / RFU PIWIL2 (11732686_x_at) / Fold change /veh PIWIL2 (11732686_x_at) / RFU ORM1 (11744905_x_at) / Fold change /veh ORM1 (11744905_x_at) / RFU CCDC152 (11743942_at) / Fold change /veh CCDC152 (11743942_at) / RFU ECM1 (11717891_a_at) / Fold change /veh ECM1 (11717891_a_at) / RFU IL23R (11748794_a_at) / Fold change /veh IL23R (11748794_a_at) / RFU TNFAIP8L3 (11732012_x_at) / Fold change /veh TNFAIP8L3 (11732012_x_at) / RFU MBOAT4 (11741988_at) / Fold change /veh MBOAT4 (11741988_at) / RFU 11764193_at / Fold change /veh 11764193_at / RFU TMEM53 (11763286_at) / Fold change /veh TMEM53 (11763286_at) / RFU MAGEB2 (11727129_at) / Fold change /veh MAGEB2 (11727129_at) / RFU TMEM200A (11744735_a_at) / Fold change /veh TMEM200A (11744735_a_at) / RFU CCDC152 (11751479_a_at) / Fold change /veh CCDC152 (11751479_a_at) / RFU FAM211A (11726209_a_at) / Fold change /veh FAM211A (11726209_a_at) / RFU RGS16 (11746705_a_at) / Fold change /veh RGS16 (11746705_a_at) / RFU VCAN (11755009_s_at) / Fold change /veh VCAN (11755009_s_at) / RFU RHOB (11743442_s_at) / Fold change /veh RHOB (11743442_s_at) / RFU RGS16 (11720943_a_at) / Fold change /veh RGS16 (11720943_a_at) / RFU RGS16 (11720944_at) / Fold change /veh RGS16 (11720944_at) / RFU, VPS4B / Fold change vs veh, VPS4B / RFU, CREB1 / Fold change vs veh, CREB1 / RFU, DNAJC13 / Fold change vs veh, DNAJC13 / RFU, GNAQ / Fold change vs veh, GNAQ / RFU, CDK5R1 / Fold change vs veh, CDK5R1 / RFU, ZRANB3 / Fold change vs veh, ZRANB3 / RFU, CUL4A / Fold change vs veh, CUL4A / RFU, CCNY / Fold change vs veh, CCNY / RFU, UFL1 / Fold change vs veh, UFL1 / RFU, COG3 / Fold change vs veh, COG3 / RFU, DIAPH2 / Fold change vs veh, DIAPH2 / RFU, SKA2 / Fold change vs veh, SKA2 / RFU, AFF3 / Fold change vs veh, AFF3 / RFU, LMF1 / Fold change vs veh, LMF1 / RFU, IPO11 / Fold change vs veh, IPO11 / RFU, DFFB / Fold change vs veh, DFFB / RFU, FOXP1 / Fold change vs veh, FOXP1 / RFU, CARD8 / Fold change vs veh, CARD8 / RFU, STRN3 / Fold change vs veh, STRN3 / RFU, ADK / Fold change vs veh, ADK / RFU, RASSF2 / Fold change vs veh, RASSF2 / RFU, WIPF1 / Fold change vs veh, WIPF1 / RFU, LARP1B / Fold change vs veh, LARP1B / RFU, RASA1 / Fold change vs veh, RASA1 / RFU, RB1 / Fold change vs veh, RB1 / RFU, PPFIA1 / Fold change vs veh, PPFIA1 / RFU, MAT2A / Fold change vs veh, MAT2A / RFU, CCT5 / Fold change vs veh, CCT5 / RFU, WDR92 / Fold change vs veh, WDR92 / RFU, CUX1 / Fold change vs veh, CUX1 / RFU, TTC7A / Fold change vs veh, TTC7A / RFU, TMEM135 / Fold change vs veh, TMEM135 / RFU, DEPTOR / Fold change vs veh, DEPTOR / RFU, CPM / Fold change vs veh, CPM / RFU, DNAJB6 / Fold change vs veh, DNAJB6 / RFU, CACNA2D3 / Fold change vs veh, CACNA2D3 / RFU, DTX4 / Fold change vs veh, DTX4 / RFU, TFCP2 / Fold change vs veh, TFCP2 / RFU, GMCL1 /// GMCL1P1 / Fold change vs veh, GMCL1 /// GMCL1P1 / RFU, AEBP2 / Fold change vs veh, AEBP2 / RFU, SNHG1 /// SNORD22 /// SNORD25 /// SNORD26 /// SNORD27 /// SNORD28 /// SNORD29 /// SNORD31 / Fold change vs veh, SNHG1 /// SNORD22 /// SNORD25 /// SNORD26 /// SNORD27 /// SNORD28 /// SNORD29 /// SNORD31 / Fold change (Aza/veh), C12orf56 (ProbeSet 11735607_a_at) / Fold change (ACY-1035/veh), C12orf56 (ProbeSet 11735607_a_at) / Fold change (Aza/veh), FGFR1OP (ProbeSet 11751329_s_at) / Fold change (ACY-1035/veh), FGFR1OP (ProbeSet 11751329_s_at) / Fold change (Aza/veh), VPS36 (ProbeSet 11739960_a_at) / Fold change (ACY-1035/veh), VPS36 (ProbeSet 11739960_a_at) / RFU SYPL1 (11715823_x_at) / Fold change /veh SYPL1 (11715823_x_at) / RFU IGFBP7 (11715501_s_at) / Fold change /veh IGFBP7 (11715501_s_at) / RFU REEP3 (11722064_at) / Fold change /veh REEP3 (11722064_at) / RFU IGLL1 (11728026_x_at) / Fold change /veh IGLL1 (11728026_x_at): dose or concentration left out as unconfirmed
Settings: MV-4-11 cells, 48 hours

Structure (SMILES): Nc1ccc(-c2cccs2)cc1NC(=O)c1ccc2c(c1)cc(C1CC1)n2CCN1CCOCC1 [ACY-1035]
- RFU SPTSSB (11747773_x_at): 31.07 RFU
